The text below walks through data of patent US20260274892A1, “MACROCYCLIC BROAD SPECTRUM ANTIBIOTICS” (RQx Pharmaceuticals, Inc., priority 2017, published 2026).

This assay has as its system Escherichia coli ATCC 25922. Kind of assay: Minimum inhibitory concentration (MIC), CLSI broth micro-dilution, E. coli. Format: cell-based. The conditions noted are these: Escherichia coli. Summed up: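 Colonies grown 20 h at 35° C on Trypticase Soy agar (MRSA) or Luria agar (E. coli) were suspended in cation-adjusted Mueller Hinton broth with 0.002% Tween-80. Suspensions were added at OD600 0.0005 to 10-point twofold compound dilutions, then incubated 22 h at 35° C.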

Where [1] appears, read: ATCC25922, 22 h, Table 7, cation adjusted Mueller Hinton Broth + 0.002% Tween-80, 35° C.
Where [2] appears, read: ATCC25922, Table 7, cation adjusted Mueller Hinton Broth + 0.002% Tween-80, 35° C., 22 hours.

For orientation: MIC means the lowest concentration found to suppress growth. For the compound `COc1c(OCCN)cc2cc1-c1cc(cc(OCCN)c1OC)[C@H](N(C)C(=O)[C@H](CCN)NC(=O)c1c(C)nc(-c3ccc(C(C)(C)C)cc3)nc1C)C(=O)N[C@@H](C)C(=O)N[C@H](C(=O)NCC#N)C2` (racemic) [Compound 592, rac-(8S,11S,14S)-4,17-bis(2-aminoethoxy)-N-(cyanomethyl)-3,18-dimethoxy-11-methyl-14-[methyl-[rac-(2S)-4-amino-2-[[2-(4-tert-butylphenyl)-4,6-dimethyl-pyrimidine-5-carbonyl]amino]butanoyl]amino]-10,13-dioxo-9,12-diazatricyclo[13.3.1.12,6]icosa-1(18),2(20),3,5,15(19),16-hexaene-8-carboxamide], the MIC under setting [1] turned out to be 0.19 µM.

On to `COc1c(OC[C@H](O)CN)cc2cc1-c1cc(cc(OC[C@H](O)CN)c1OC)[C@H](N(C)C(=O)[C@H](CNS(N)(=O)=O)NC(=O)c1c(C)nc(-c3ccc(C(C)(C)C)cc3)nc1C)C(=O)N[C@@H](C)C(=O)N[C@H](C(=O)NCC#N)C2` (racemic) [Compound 593, rac-(8S,11S,14S)-N-(cyanomethyl)-3,18-dimethoxy-11-methyl-14-[methyl-[rac-(2S)-2-[[2-(4-tert-butylphenyl)-4,6-dimethyl-pyrimidine-5-carbonyl]amino]-3-(sulfamoylamino)propanoyl]amino]-10,13-dioxo-4,17-bis[rac-(2R)-3-amino-2-hydroxy-propoxy]-9,12-diazatricyclo[13.3.1.12,6]icosa-1(18),2(20),3,5,15(19),16-hexaene-8-carboxamide], for which, under setting [1], the MIC amounted to 1.5 µM.

For the compound `Cc1nc(-c2ccc(C(C)(C)C)cc2)nc(C)c1C(=O)N[C@@H](CCN)C(=O)N(C)[C@@H]1C(=O)N[C@@H](C)C(=O)N[C@H](C(=O)NCC#N)Cc2cc(OCCN)c(O)c(c2)-c2cc1ccc2OC[C@H](O)CN` (racemic) [Compound 594, rac-(8S,11S,14S)-4-(2-aminoethoxy)-N-(cyanomethyl)-3-hydroxy-11-methyl-14-[methyl-[rac-(2S)-4-amino-2-[[2-(4-tert-butylphenyl)-4,6-dimethyl-pyrimidine-5-carbonyl]amino]butanoyl]amino]-10,13-dioxo-18-[rac-(2R)-3-amino-2-hydroxy-propoxy]-9,12-diazatricyclo[13.3.1.12,6]icosa-1(18),2(20),3,5,15(19),16-hexaene-8-carboxamide], the minimal inhibitory concentration (MIC) under setting [2] stood at 0.13 µM.

Turning to `Cc1nc(-c2ccc(C(C)(C)C)cc2)nc(C)c1C(=O)N[C@@H](CCN)C(=O)N(C)[C@@H]1C(=O)N[C@@H](C)C(=O)N[C@H](C(=O)NCC#N)Cc2ccc(O)c(c2)-c2cc1ccc2OCCNC(=N)N` (racemic) [Compound 595, rac-(8S,11S,14S)-N-(cyanomethyl)-18-(2-guanidinoethoxy)-3-hydroxy-11-methyl-14-[methyl-[rac-(2S)-4-amino-2-[[2-(4-tert-butylphenyl)-4,6-dimethyl-pyrimidine-5-carbonyl]amino]butanoyl]amino]-10,13-dioxo-9,12-diazatricyclo[13.3.1.12,6]icosa-1(18),2(20),3,5,15(19),16-hexaene-8-carboxamide], the minimum inhibitory concentration (MIC) under setting [1] turned out to be 0.33 µM.

In the case of `Cc1nc(-c2ccc(C(C)(C)C)cc2)nc(C)c1C(=O)N[C@@H](CCN)C(=O)N(C)[C@@H]1C(=O)N[C@@H](C)C(=O)N[C@H](C(=O)NCC#N)Cc2ccc(O)c(c2)-c2cc1ccc2OCCCNC(=N)N` (racemic) [Compound 596, rac-(8S,11S,14S)-N-(cyanomethyl)-18-(3-guanidinopropoxy)-3-hydroxy-11-methyl-14-[methyl-[rac-(2S)-4-amino-2-[[2-(4-tert-butylphenyl)-4,6-dimethyl-pyrimidine-5-carbonyl]amino]butanoyl]amino]-10,13-dioxo-9,12-diazatricyclo[13.3.1.12,6]icosa-1(18),2(20),3,5,15(19),16-hexaene-8-carboxamide], under setting [1], the minimum inhibitory concentration (MIC) was found to be 0.5 µM.

As to `Cc1nc(-c2ccc(C(C)(C)C)cc2)nc(C)c1C(=O)N[C@@H](CCN)C(=O)N(C)[C@@H]1C(=O)N[C@@H](C)C(=O)N[C@H](C(=O)NCC#N)Cc2ccc(OCCCN)c(c2)-c2cc1ccc2O` (racemic) [Compound 597, rac-(8S,11S,14S)-3-(3-aminopropoxy)-N-(cyanomethyl)-18-hydroxy-11-methyl-14-[methyl-[rac-(2S)-4-amino-2-[[2-(4-tert-butylphenyl)-4,6-dimethyl-pyrimidine-5-carbonyl]amino]butanoyl]amino]-10,13-dioxo-9,12-diazatricyclo[13.3.1.12,6]icosa-1(18),2(20),3,5,15(19),16-hexaene-8-carboxamide], under setting [1], the MIC was 0.26 µM.

As to `CCCCCOc1ccc(-c2nc(C)c(C(=O)N[C@@H](CCN)C(=O)N(C)[C@@H]3C(=O)N[C@@H](C)C(=O)N[C@H](C(=O)NCC#N)Cc4ccc(O)c(c4)-c4cc3ccc4OCCCN)c(C)n2)cc1` (racemic) [Compound 598, rac-(8S,11S,14S)-18-(3-aminopropoxy)-N-(cyanomethyl)-3-hydroxy-11-methyl-14-[methyl-[rac-(2S)-4-amino-2-[[4,6-dimethyl-2-(4-pentoxyphenyl)pyrimidine-5-carbonyl]amino]butanoyl]amino]-10,13-dioxo-9,12-diazatricyclo[13.3.1.12,6]icosa-1(18),2(20),3,5,15(19),16-hexaene-8-carboxamide], under setting [1], the MIC was 0.094 µM.

As to `CNCCOc1ccc2cc1-c1cc(ccc1O)C[C@@H](C(=O)NCC#N)NC(=O)[C@H](C)NC(=O)[C@H]2N(C)C(=O)[C@H](CCN)NC(=O)c1c(C)nc(-c2ccc(C(C)(C)C)cc2)nc1C` (racemic) [Compound 600, rac-(8S,11S,14S)-N-(cyanomethyl)-3-hydroxy-11-methyl-18-[2-(methylamino)ethoxy]-14-[methyl-[rac-(2S)-4-amino-2-[[2-(4-tert-butylphenyl)-4,6-dimethyl-pyrimidine-5-carbonyl]amino]butanoyl]amino]-10,13-dioxo-9,12-diazatricyclo[13.3.1.12,6]icosa-1(18),2(20),3,5,15(19),16-hexaene-8-carboxamide], the MIC under setting [1] was determined as 0.38 µM.

Regarding `Cc1nc(-c2ccc(C(C)(C)C)cc2)nc(C)c1C(=O)N[C@@H](CCN)C(=O)N(C)[C@@H]1C(=O)N[C@@H](C)C(=O)N[C@H](C(=O)NCC#N)Cc2ccc(O)c(c2)-c2cc1ccc2OCCNCCN` (racemic) [Compound 601, rac-(8S,11S,14S)-18-[2-(2-aminoethylamino)ethoxy]-N-(cyanomethyl)-3-hydroxy-11-methyl-14-[methyl-[rac-(2S)-4-amino-2-[[2-(4-tert-butylphenyl)-4,6-dimethyl-pyrimidine-5-carbonyl]amino]butanoyl]amino]-10,13-dioxo-9,12-diazatricyclo[13.3.1.12,6]icosa-1(18),2(20),3,5,15(19),16-hexaene-8-carboxamide], the minimal inhibitory concentration (MIC) under setting [1] worked out at 0.5 µM.

On to `Cc1nc(-c2ccc(C(C)(C)C)cc2)nc(C)c1C(=O)N[C@@H](CCN)C(=O)N(C)[C@@H]1C(=O)N[C@@H](C)C(=O)N[C@H](C(=O)NCC#N)Cc2ccc(O)c(c2)-c2cc1ccc2OCCNCCCN` (racemic) [Compound 602, rac-(8S,11S,14S)-18-[2-(3-aminopropylamino)ethoxy]-N-(cyanomethyl)-3-hydroxy-11-methyl-14-[methyl-[rac-(2S)-4-amino-2-[[2-(4-tert-butylphenyl)-4,6-dimethyl-pyrimidine-5-carbonyl]amino]butanoyl]amino]-10,13-dioxo-9,12-diazatricyclo[13.3.1.12,6]icosa-1(18),2(20),3,5,15(19),16-hexaene-8-carboxamide], for which the minimum inhibitory concentration (MIC) under setting [1] was found to be 0.063 µM.

As for `CC(=N)NCCOc1ccc2cc1-c1cc(ccc1O)C[C@@H](C(=O)NCC#N)NC(=O)[C@H](C)NC(=O)[C@H]2N(C)C(=O)[C@H](CCN)NC(=O)c1c(C)nc(-c2ccc(C(C)(C)C)cc2)nc1C` (racemic) [Compound 603, rac-(8S,11S,14S)-N-(cyanomethyl)-18-[2-(ethanimidoylamino)ethoxy]-3-hydroxy-11-methyl-14-[methyl-[rac-(2S)-4-amino-2-[[2-(4-tert-butylphenyl)-4,6-dimethyl-pyrimidine-5-carbonyl]amino]butanoyl]amino]-10,13-dioxo-9,12-diazatricyclo[13.3.1.12,6]icosa-1(18),2(20),3,5,15(19),16-hexaene-8-carboxamide], under setting [2], the MIC was determined as 0.44 µM.

Take `Cc1nc(-c2ccc(C(C)(C)C)cc2)nc(C)c1C(=O)N[C@@H](CCN)C(=O)N(C)[C@@H]1C(=O)N[C@@H](C)C(=O)N[C@H](C(=O)NCC#N)Cc2ccc(O)c(c2)-c2cc1ccc2OC1CNC1` (racemic) [Compound 604, rac-(8S,11S,14S)-18-(azetidin-3-yloxy)-N-(cyanomethyl)-3-hydroxy-11-methyl-14-[methyl-[rac-(2S)-4-amino-2-[[2-(4-tert-butylphenyl)-4,6-dimethyl-pyrimidine-5-carbonyl]amino]butanoyl]amino]-10,13-dioxo-9,12-diazatricyclo[13.3.1.12,6]icosa-1(18),2(20),3,5,15(19),16-hexaene-8-carboxamide]: the minimal inhibitory concentration (MIC) under setting [1] amounted to 0.75 µM.

On to `Cc1nc(-c2ccc(C(C)(C)C)cc2)nc(C)c1C(=O)N[C@@H](CCN)C(=O)N(C)[C@@H]1C(=O)N[C@@H](C)C(=O)N[C@H](C(=O)NCC#N)Cc2ccc(OC3CNC3)c(c2)-c2cc1ccc2O` (racemic) [Compound 605, rac-(8S,11S,14S)-3-(azetidin-3-yloxy)-N-(cyanomethyl)-18-hydroxy-11-methyl-14-[methyl-[rac-(2S)-4-amino-2-[[2-(4-tert-butylphenyl)-4,6-dimethyl-pyrimidine-5-carbonyl]amino]butanoyl]amino]-10,13-dioxo-9,12-diazatricyclo[13.3.1.12,6]icosa-1(18),2(20),3,5,15(19),16-hexaene-8-carboxamide], for which, under setting [1], the MIC came out at 0.75 µM.
